# Results taken from ChEMBL document CHEMBL4118217, “Pyrrolinone derivatives as a new class of P2X3 receptor antagonists. Part 1: Initial structure-activity relationship studies of a hit from a high throughput screening” (Bioorg Med Chem Lett, 2018).
# Legend:
# [1] = tested on: Mus musculus; assay: Analgesic activity in iv dosed mouse assessed as inhibition of acetic acid-induced writhes; type: functional
# [2] = target: T1, P2X purinoceptor 3 (Homo sapiens, UniProt P56373)
# T1 sequence (P56373 whole entry): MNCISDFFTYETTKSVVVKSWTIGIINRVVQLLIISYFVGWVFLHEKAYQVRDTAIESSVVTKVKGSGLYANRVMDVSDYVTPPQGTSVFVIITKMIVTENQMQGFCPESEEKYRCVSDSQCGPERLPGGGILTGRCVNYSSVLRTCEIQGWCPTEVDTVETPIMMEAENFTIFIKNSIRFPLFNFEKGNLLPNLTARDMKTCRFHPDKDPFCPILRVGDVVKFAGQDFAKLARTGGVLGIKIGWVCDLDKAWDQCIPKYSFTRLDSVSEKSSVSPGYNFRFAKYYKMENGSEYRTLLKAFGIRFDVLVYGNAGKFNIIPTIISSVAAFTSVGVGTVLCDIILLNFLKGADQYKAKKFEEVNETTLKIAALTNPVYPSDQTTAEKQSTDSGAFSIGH
# [3] = Half life in rat at 0.5 mg/kg, iv or 1 mg/kg, po; type: ADME, organism-based; conditions: in vivo
# [4] = Oral bioavailability in rat at 1 mg/kg; type: ADME, organism-based; conditions: in vivo
# [5] = in vivo; conditions: rat, iv, 0.5 mg/kg
SMILES,IC50 [2] [nM],also measured
COc1ccc(C(=O)C2=C([O-])C(=O)N(c3ccc(-c4ccon4)cc3)C2C2CCCCC2)cc1.[Na+] (stereo unspecified),–,ED50 [1]: 2.6 mg/kg
CCOC(=O)c1ccc(N2C(=O)C(O)=C(c3ccc(OC)cc3)C2c2ccccc2)cc1 (stereo unspecified),> 10000,–
CCOC(=O)c1ccc(N2C(=O)C(O)=C(C(=O)c3ccc(OC)cc3)C2C2CCCCC2)cc1 (stereo unspecified),10,–
COc1ccc(C(=O)C2=C(O)C(=O)N(c3ccc(-c4ccon4)cc3)C2C2CCCCC2)cc1 (stereo unspecified) [listing 1 of 2 here],–,inhibition [1]: Dose-dependent effect
COc1ccc(C(=O)C2=C(O)C(=O)N(c3ccc(-c4nnc(C)o4)cc3)C2C2CCCCC2)cc1 (stereo unspecified),72,half-life [3]: 1.7 h; bioavailability [4]: 2.9%; clearance [5]: 5.5 mL/min/kg
CCOC(=O)c1ccc(N2C(=O)C(NO)=C(C(=O)c3ccc(OC)cc3)C2c2ccccc2)cc1 (stereo unspecified),4240,–
COc1ccc(C(=O)C2=C(O)C(=O)N(c3ccc(C(=O)O)cc3)C2c2ccccc2)cc1 (stereo unspecified),> 10000,–
COc1ccc(C(=O)C2=C(O)C(=O)N(c3ccc(-c4noc(C)n4)cc3)C2c2ccccc2)cc1 (stereo unspecified),100,–
COc1ccc(C(=O)C2=C(O)C(=O)N(c3ccc(-c4ccon4)cc3)C2C2CCCCC2)cc1 (stereo unspecified) [listing 2 of 2 here],–,half-life [3]: 1.3 h; bioavailability [4]: 10.2%
CCOC(=O)c1ccc(N2C(=O)C(O)=C(C(=O)c3ccc(OC)cc3)C2c2ccc(Cl)cc2)cc1 (stereo unspecified),130,–
COc1ccc(C(=O)C2=C(O)C(=O)N(c3ccc(-c4noc(C)n4)cc3)C2C2CCCCC2)cc1 (stereo unspecified),19,half-life [3]: 0.8 h; bioavailability [4]: 7.1%; clearance [5]: 5 mL/min/kg
CCOC(=O)c1ccc(N2C(=O)C(O)=C(C(=O)Nc3ccc(OC)cc3)C2c2ccccc2)cc1 (stereo unspecified),3930,–
CCOC(=O)c1ccc(N2C(=O)C(O)=C(C(=O)c3ccc(OC)cc3)C2c2ccc(F)cc2)cc1 (stereo unspecified),20,half-life [3]: 0.1 h; clearance [5]: 37 mL/min/kg
CCOC(=O)c1ccc(N2C(=O)C(O)=C(C(=O)c3ccc(OC)cc3)C2c2cccc(F)c2)cc1 (stereo unspecified),30,–
COc1ccc(C(=O)C2=C(O)C(=O)N(c3ccc(-c4nc(C)no4)cc3)C2C2CCCCC2)cc1 (stereo unspecified),–,half-life [3]: 1 h; bioavailability [4]: 13.5%; clearance [5]: 3.4 mL/min/kg
COc1ccc(C(=O)C2=C(O)C(=O)N(c3ccc(C(F)(F)F)cc3)C2c2ccc(F)cc2)cc1 (stereo unspecified),360,–
COc1ccc(C(=O)C2=C(O)C(=O)N(c3ccc(CO)cc3)C2c2ccccc2)cc1 (stereo unspecified),> 10000,–
CCOC(=O)c1ccc(N2C(=O)C(O)=C(C(=O)c3ccc(OC)cc3)C2c2ccccc2Cl)cc1 (stereo unspecified),90,–
CCOC(=O)c1ccc(N2C(=O)C=C(C(=O)c3ccc(OC)cc3)C2c2ccccc2)cc1 (stereo unspecified),> 10000,–

# Continued, in another order:
IC50 [2] [nM],SMILES,also measured
135,COc1ccc(C(=O)C2=C(O)C(=O)N(c3ccc(-c4ncco4)cc3)C2C2CCCCC2)cc1 (stereo unspecified),–
370,CCOC(=O)c1ccc(N2C(=O)C(O)=C(C(=O)c3ccccc3)C2c2ccccc2)cc1 (stereo unspecified),–
> 10000,COc1ccc(C(=O)C2=C(O)C(=O)N(c3ccccc3)C2c2ccccc2)cc1 (stereo unspecified),–
3280,COc1ccc(C(=O)C2=C(O)C(=O)N(c3ccc(C(C)=O)cc3)C2c2ccccc2)cc1 (stereo unspecified),–
20,CCOC(=O)c1ccc(N2C(=O)C(O)=C(C(=O)c3ccc(OC)cc3)C2c2ccccc2)cc1 (stereo unspecified),–
1370,CCOC(=O)c1ccc(N2C(=O)C(O)=C(NC(=O)c3ccc(OC)cc3)C2c2ccccc2)cc1 (stereo unspecified),–
9800,CCOC(=O)c1ccc(N2C(=O)C(OC)=C(C(=O)c3ccc(OC)cc3)C2c2ccccc2)cc1 (stereo unspecified),–
4790,CCOC(=O)c1ccc(N2C(=O)C(O)=C(C(C)=O)C2c2ccccc2)cc1 (stereo unspecified),–
9,COc1ccc(C(=O)C2=C(O)C(=O)N(c3ccc(-c4cc(C)no4)cc3)C2C2CCCCC2)cc1 (stereo unspecified),half-life [3]: 1.1 h; bioavailability [4]: 0.5%; clearance [5]: 6.2 mL/min/kg
> 10000,CCOC(=O)c1ccc(N2CC(C(=O)c3ccc(OC)cc3)=C(O)C2=O)cc1,–
> 10000,CCOC(=O)c1ccc(N2C(=O)C(O)=C(Cc3ccc(OC)cc3)C2c2ccccc2)cc1 (stereo unspecified),–
560,CCOC(=O)c1ccc(N2C(=O)C(O)=C(/C(=N/O)c3ccc(OC)cc3)C2c2ccccc2)cc1 (stereo unspecified),–
130,CCOC(=O)c1ccc(N2C(=O)C(O)=C(C(=O)c3ccc(OC)cc3)C2c2ccccc2F)cc1 (stereo unspecified),–
